One series deals with Human CYP2E1. As to conditions: cited from earlier work.
In series [1] the target is T1, CYP2E1 (Homo sapiens, UniProt P05181). As to conditions: read-out: Ks; styrene, free enzyme; cited from earlier work.
For series [2], the target named is T1, CYP2E1. Kind of series: in vitro. Particulars: recombinant enzyme, pH 7.4.
Series [3] deals with T1, CYP2E1. Kind of series: biochemical.
Series [4] deals with T1, CYP2E1. Kind of series: Impact of styrene on acetaminophen oxidation by recombinant CYP2E1. As to conditions: 100 µM acetaminophen, styrene 50 to 500 µM.

pIC50, pKd: −log10 of the molar value. Like-named read-outs stand apart in the source and are kept apart here.

T1 sequence (P05181 whole entry): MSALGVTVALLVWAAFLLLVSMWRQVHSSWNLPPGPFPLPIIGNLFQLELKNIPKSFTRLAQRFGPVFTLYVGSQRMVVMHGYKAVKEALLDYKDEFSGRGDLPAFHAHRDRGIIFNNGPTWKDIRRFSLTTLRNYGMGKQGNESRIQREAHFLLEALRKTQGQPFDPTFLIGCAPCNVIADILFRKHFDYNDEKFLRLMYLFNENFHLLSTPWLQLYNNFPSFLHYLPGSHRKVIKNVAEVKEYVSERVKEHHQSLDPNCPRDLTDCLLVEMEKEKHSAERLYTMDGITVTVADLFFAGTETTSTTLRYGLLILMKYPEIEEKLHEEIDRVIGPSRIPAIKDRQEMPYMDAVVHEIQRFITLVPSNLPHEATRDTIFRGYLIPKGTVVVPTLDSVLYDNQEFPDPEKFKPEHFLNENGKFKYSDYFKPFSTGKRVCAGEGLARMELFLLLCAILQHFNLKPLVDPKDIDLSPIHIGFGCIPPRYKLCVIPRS

Take `CC(=O)Nc1ccc(O)cc1` [acetaminophen]: the Km – broadly, the substrate concentration at which the rate is half of its maximum – in the series with Human CYP2E1 (CYP2E1 expressed in HepG2 cells or purified CYP2E1 in a reconstituted system) was around 600 µM; in the series on Human CYP2E1 (reconstituted CYP2E1 system) it was 1300 µM.

As for `C=Cc1ccccc1` [styrene], the pKd on CYP2E1 [1] is 3.43. Besides, the activity on CYP2E1 [2] was found to be 19%. At CYP2E1 [3], the pIC50 (commonly −log10 of the IC50, conventionally taken in molar units) was 4.66. The “remaining acetaminophen oxidation activity versus prediction” value on CYP2E1 [4] is reported as “greater than would be predicted by simple competition”.

(Values after article PMC5584065 (Biochemical pharmacology, 2015).)
